Experimental data reported in PubChem BioAssay (NCI).
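48-hour exposure; five concentrations; linearly interpolated endpoints. TGI is the concentration that stops growth completely.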

How the values were obtained:
Assay in all cases: NCI tumour cell line growth inhibition, 48 h
[1] = tested on: KM12 colon
[2] = tested on: MOLT-4 leukemia
[3] = tested on: LOX IMVI melanoma
[4] = tested on: NCI-H23 lung
[5] = tested on: SNB-75 CNS
[6] = tested on: SN12C renal
[7] = tested on: HOP-92 NSCLC
[8] = tested on: A498 renal
[9] = tested on: DLD-1 colon
[10] = tested on: HL-60(TB) leukemia
[11] = tested on: SF-268 CNS
[12] = tested on: OVCAR-8 ovarian
[13] = tested on: NCI-H226 lung
[14] = tested on: OVCAR-5 ovarian
[15] = tested on: HOP-62 NSCLC
[16] = tested on: DMS 114 small cell lung
[17] = tested on: HT29 colon
[18] = tested on: U251 CNS
[19] = tested on: HOP-18 NSCLC
[20] = tested on: UO-31 renal
[21] = tested on: HCT-116 colon
[22] = tested on: SF-295 CNS
[23] = tested on: HCT-15 colon
[24] = tested on: A549 NSCLC
[25] = tested on: CAKI-1 renal
[26] = tested on: OVCAR-3 ovarian
[27] = tested on: OVCAR-4 ovarian
[28] = tested on: EKVX NSCLC
[29] = tested on: XF 498 CNS
[30] = tested on: HCC-2998 colon
[31] = tested on: SW-620 colon
[32] = tested on: M19-MEL melanoma
[33] = tested on: NCI/ADR-RES ovarian
[34] = tested on: K-562 leukemia
[35] = tested on: RPMI-8226 leukemia
[36] = tested on: UACC-257 melanoma
[37] = tested on: NCI-H460 lung
[38] = tested on: COLO 205 colon
[39] = tested on: SK-MEL-2 melanoma
[40] = tested on: RXF 393 renal
[41] = tested on: KM20L2 colon
[42] = tested on: CCRF-CEM leukemia
[43] = tested on: SK-OV-3 ovarian
[44] = tested on: IGROV1 ovarian
[45] = tested on: DMS 273 small cell lung
[46] = tested on: UACC-62 melanoma
[47] = tested on: SNB-78 CNS
[48] = tested on: P388/ADR leukemia
[49] = tested on: SK-MEL-28 melanoma
[50] = tested on: MALME-3M melanoma
[51] = tested on: 786-0 renal
[52] = tested on: M14 melanoma
[53] = tested on: SK-MEL-5 melanoma
[54] = tested on: SR leukemia
[55] = tested on: SNB-19 CNS
[56] = tested on: ACHN renal
[57] = tested on: SF-539 CNS
[58] = tested on: NCI-H522 lung
[59] = tested on: LXFL 529 NSCLC
[60] = tested on: RXF-631 renal

## C/C=C(\C)C(=O)OC1C2C(C)=CC(=O)C(O)C2(C)C2C3(O)OCC24C1OC(=O)C(OC(C)=O)C4C(C)C3O (stereo not given)
[1]
  TGI: 37.5 nM
[2]
  TGI: 750 nM
[3]
  TGI: 375 nM
[4]
  TGI: 266 nM
[5]
  TGI: 55 nM
[6]
  TGI: 468 nM
[7]
  TGI: 50.8 nM
[8]
  TGI: 147 nM
[9]
  TGI: 78 nM
[10]
  TGI: 808 nM
[11]
  TGI: 88.7 nM
[12]
  TGI: 105 nM
[13]
  TGI: 42.7 nM
[14]
  TGI: 1530 nM
[15]
  TGI: 41.5 nM
[16]
  TGI: 40.9 nM
[17]
  TGI: 382 nM
[18]
  TGI: 40.7 nM
[19]
  TGI: 792 nM
[20]
  TGI: 887 nM
[21]
  TGI: 875 nM
[22]
  TGI: 95.9 nM
[23]
  TGI: 328 nM
[24]
  TGI: 648 nM
[25]
  TGI: 674 nM
[26]
  TGI: 49.6 nM
[27]
  TGI: 413 nM
[28]
  TGI: 103 nM
[29]
  TGI: 57.7 nM
[30]
  TGI: 92.8 nM
[31]
  TGI: 525 nM
[32]
  TGI: 45.5 nM
[33]
  TGI: 31200 nM
[34]
  TGI: 375 nM
[35]
  TGI: 37.7 nM
[36]
  TGI: 49.6 nM
[37]
  TGI: 38 nM
[38]
  TGI: 229 nM
[39]
  TGI: 73 nM
[40]
  TGI: 63 nM
[41]
  TGI: 795 nM
[42]
  TGI: 244 nM
[43]
  TGI: 1120 nM
[44]
  TGI: 160 nM
[45]
  TGI: 38.2 nM
[46]
  TGI: 55.5 nM
[47]
  TGI: 141 nM
[48]
  TGI: 924 nM
[49]
  TGI: 39.7 nM

## CO/S(=N/S(=O)(=O)c1ccccc1)c1ccccc1[N+](=O)[O-] (stereo not given)
[1]
  TGI: > 100000 nM
[50]
  TGI: > 100000 nM
[2]
  TGI: > 100000 nM
[3]
  TGI: > 100000 nM
[51]
  TGI: > 100000 nM
[4]
  TGI: > 100000 nM
[5]
  TGI: > 100000 nM
[6]
  TGI: > 100000 nM
[9]
  TGI: > 100000 nM
[52]
  TGI: > 100000 nM
[53]
  TGI: > 100000 nM
[11]
  TGI: > 100000 nM
[54]
  TGI: > 100000 nM
[55]
  TGI: > 100000 nM
[12]
  TGI: > 100000 nM
[13]
  TGI: > 100000 nM
[14]
  TGI: > 100000 nM
[15]
  TGI: > 100000 nM
[17]
  TGI: > 100000 nM
[18]
  TGI: > 100000 nM
[19]
  TGI: > 100000 nM
[20]
  TGI: > 100000 nM
[22]
  TGI: > 100000 nM
[23]
  TGI: > 100000 nM
[24]
  TGI: > 100000 nM
[56]
  TGI: > 100000 nM
[57]
  TGI: > 100000 nM
[58]
  TGI: > 100000 nM
[25]
  TGI: > 100000 nM
[26]
  TGI: > 100000 nM
[27]
  TGI: > 100000 nM
[59]
  TGI: > 100000 nM
[28]
  TGI: > 100000 nM
[29]
  TGI: > 100000 nM
[30]
  TGI: > 100000 nM
[31]
  TGI: > 100000 nM
[32]
  TGI: > 100000 nM
[34]
  TGI: > 100000 nM
[35]
  TGI: > 100000 nM
[36]
  TGI: > 100000 nM
[37]
  TGI: > 100000 nM
[38]
  TGI: > 100000 nM
[39]
  TGI: > 100000 nM
[41]
  TGI: > 100000 nM
[42]
  TGI: > 100000 nM
[43]
  TGI: > 100000 nM
[44]
  TGI: > 100000 nM
[45]
  TGI: > 100000 nM
[60]
  TGI: > 100000 nM
[46]
  TGI: > 100000 nM
[49]
  TGI: > 100000 nM
